Reference: patent publication US10716859B2, “Excipients for stabilising viral particles, polypeptides or biological material” (priority 2010, dated 2020)

Columns and labels:
[1] = tested on: Recombinant adenovirus expressing enhanced GFP; test: Recovered adenoviral activity after 7 days at 4° C. or 37° C. with glycinergics or SMM (Example 4); type: cell-based; conditions: one week at 37° C.
white cell fraction = test: White cell viability in human blood diluted with excipients, Guava Viacount (Example 18); type: cell-based; conditions: equal volume dilution, 25° C. for 30 minutes
[2] = 0.07 M, sole excipient (no sugars)
[3] = 0.07 M, with sugars (1M Sucrose, 100 mM Raffinose)
[4] = 0.70 M, sole excipient (no sugars)
[5] = 0.70 M, with sugars (1M Sucrose, 100 mM Raffinose)

Compound | recovered viral activity [1, 2] | recovered viral activity ([1]; 0.23 M, sole excipient (no sugars)) | recovered viral activity [1, 3] | recovered viral activity [1, 4] | recovered viral activity [1, 5] | effect on white cell viability in the blood sample (white cell fraction)
C[S+](C)CC[C@H](N)C(=O)O [SMM, S-methyl-L-methionine] | 33% | 43% | – | – | – | –
CN(C)CC(=O)O [DMG, N,N-Dimethylglycine] | 27% | – | 37% | 41% | 52% | no adverse effects
CNCC(=O)O [sarcosine, N-Methyl-glycine] | 29% | – | 37% | 49% | 56% | –
C[N+](C)(C)CC(=O)O [TMG, N,N,N-trimethylglycine] | 21% | – | 45% | 45% | 38.7% | –
NCC(=O)O [glycine, Glycine, reference compound] | 29% | – | 41% | 45% | 54% | –
